According to patent publication US4107424A, “1-N-[(S)-α-hydroxy-ω-aminoacyl] derivatives of 3',4'-dideoxykanamycin B and 3'-deoxykanamycin B antibiotics” (Zaidan Hojin Biseibutsu Kagaku Kenkyu Kai, priority 1972, dated 1978):
≈ marks a conversion by molar mass, not a printed value. Like-named read-outs stand apart in the source and are kept apart here.

Assays:
[1] = tested on: Bacillus subtilis NRRL B-558; experiment: Minimal inhibitory concentration, agar dilution streak method; format: cell-based; details: NRRLB558, nutrient agar, 37° C, 18 hours
Description: (§1) [α]D^22 + 38°, (c 0.85, water).
(§2) *Agar Agar dilution streak method (nutrient agar, 37° C, 18 hours)
(§3) *Agar dilution streak method (nutrient agar, 37° C, 18 hours).

[2] = tested on: Escherichia coli J 5 R 11-2; experiment: as above; format: cell-based; details: J5R112, 18 h, read-out: Minimal inhibitory concentration
Description: as §1, §2, §3

[3] = tested on: Escherichia coli K-12 C 600 R 135; experiment: as above; format: cell-based; details: 18 h, read-out: Minimal inhibitory concentration
Description: as §1, §2, §3

[4] = tested on: Escherichia coli K-12 R-5; experiment: as above; format: cell-based; details: K12R5, nutrient agar, 37° C, 18 hours
Description: as §1, §2, §3

[5] = tested on: Escherichia coli NIHJ; experiment: as above; format: cell-based; details: nutrient agar, 37° C, 18 hours
Description: as §1, §2, §3

[6] = tested on: Klebsiella pneumoniae PCI 602; experiment: as above; format: cell-based; details: PCI602, nutrient agar, 37° C, 18 hours
Description: as §1, §2, §3

[7] = tested on: Proteus rettgeri GN 311; experiment: as above; format: cell-based; details: Providencia rettgeri, GN311; nutrient agar, 37° C, 18 hours
Description: as §1, §2, §3

[8] = tested on: Proteus rettgeri GN 466; experiment: as above; format: cell-based; details: Providencia rettgeri, GN466; nutrient agar, 37° C, 18 hours
Description: as §1, §2, §3

[9] = tested on: Pseudomonas aeruginosa 99; experiment: as above; format: cell-based; details: nutrient agar, 37° C, 18 hours, read-out: Minimal inhibitory concentration
Description: as §1, §2, §3

[10] = tested on: Salmonella typhosa T-63; experiment: as above; format: cell-based; details: Salmonella enterica, nutrient agar, 37° C, 18 hours
Description: as §1, §2, §3

[11] = tested on: Sarcina lutea PCI 1001; experiment: as above; format: cell-based; details: Micrococcus luteus, read-out: Minimal inhibitory concentration
Description: as §1, §2, §3

[12] = tested on: Escherichia coli K-12 JR 66/W 677; experiment: as above; format: cell-based; details: for MIC: Escherichia coli, 18 h, read-out: Minimal inhibitory concentration
Description: as §2, §3

[13] = tested on: Escherichia coli K-12 LA 290 R 55; experiment: as above; format: cell-based; details: 18 h, read-out: Minimal inhibitory concentration
Description: as §2, §3

[14] = tested on: Escherichia coli K-12 LA 290 R 56; experiment: as above; format: cell-based; details: 18 h, read-out: Minimal inhibitory concentration
Description: as §2, §3

[15] = tested on: Escherichia coli K-12 LA 290 R 64; experiment: as above; format: cell-based; details: nutrient agar, 37° C, 18 hours, read-out: Minimal inhibitory concentration
Description: as §2, §3

[16] = tested on: Escherichia coli K-12 ML 1410 R 81; experiment: as above; format: cell-based; details: 18 h, read-out: Minimal inhibitory concentration
Description: as §2, §3

[17] = tested on: Escherichia coli K-12 ML 1410; experiment: as above; format: cell-based; details: K12ML1410, nutrient agar, 37° C, 18 hours, read-out: Minimal inhibitory concentration
Description: as §2, §3

[18] = tested on: Escherichia coli K-12 ML 1629; experiment: as above; format: cell-based; details: K12ML1629, nutrient agar, 37° C, 18 hours, read-out: Minimal inhibitory concentration
Description: as §2, §3

[19] = tested on: Escherichia coli K-12 ML 1630; experiment: as above; format: cell-based; details: K12ML1630, nutrient agar, 37° C, 18 hours, read-out: Minimal inhibitory concentration
Description: as §2, §3

[20] = tested on: Escherichia coli K-12 W 677; experiment: as above; format: cell-based; details: K12W677, nutrient agar, 37° C, 18 hours, read-out: Minimal inhibitory concentration
Description: as §2, §3

[21] = tested on: Escherichia coli K-12; experiment: as above; format: cell-based; details: K12, nutrient agar, 37° C, 18 hours, read-out: Minimal inhibitory concentration
Description: as §2, §3

[22] = tested on: Klebsiella pneumoniae type 22 #3038; experiment: as above; format: cell-based; details: for MIC: Klebsiella pneumoniae, nutrient agar, 37° C, 18 hours
Description: as §2, §3

[23] = tested on: Pseudomonas aeruginosa A 3; experiment: as above; format: cell-based; details: A3, nutrient agar, 37° C, 18 hours, read-out: Minimal inhibitory concentration
Description: as §2, §3

[24] = tested on: Pseudomonas aeruginosa GN 315; experiment: as above; format: cell-based; details: GN315, nutrient agar, 37° C, 18 hours, read-out: Minimal inhibitory concentration
Description: as §2, §3

[25] = tested on: Pseudomonas aeruginosa No.12; experiment: as above; format: cell-based; details: nutrient agar, 37° C, 18 hours, read-out: Minimal inhibitory concentration
Description: as §2, §3

[26] = tested on: Pseudomonas aeruginosa TI-13; experiment: as above; format: cell-based; details: TI13, nutrient agar, 37° C, 18 hours, read-out: Minimal inhibitory concentration
Description: as §2, §3

[27] = tested on: Staphylococcus aureus FDA 209P; experiment: as above; format: cell-based; details: FDA209P, nutrient agar, 37° C, 18 hours, read-out: Minimal inhibitory concentration
Description: as §2, §3

[28] = tested on: Mycobacterium smegmatis ATCC 607; experiment: as above; format: cell-based; details: Mycolicibacterium smegmatis, ATCC607, nutrient agar, 37° C
[29] = tested on: kanamycin-resistant strains; details: cited from earlier work
[30] = tested on: Staphylococcus aureus Smith; experiment: Minimum inhibitory concentration, serial dilution method; format: cell-based; details: 18 h, read-out: Minimum inhibitory concentrations
[31] = tested on: Staphylococcus aureus Terajima; experiment: as above; format: cell-based; details: 18 h, read-out: Minimum inhibitory concentrations
[32] = tested on: Bacillus anthracis; experiment: microbe, parasite or virus in culture; format: cell-based; details: 18 h, read-out: Minimum inhibitory concentrations
[33] = tested on: Bacillus subtilis PCI 219; experiment: Minimum inhibitory concentration, serial dilution method; format: cell-based; details: PCI219, 18 h, read-out: Minimum inhibitory concentrations
[34] = tested on: Bacillus cereus ATCC 10702; experiment: as above; format: cell-based; details: ATCC10702, nutrient agar, 37° C, 18 hours, read-out: Minimum inhibitory concentrations
[35] = tested on: Corynebacterium bovis 1810; experiment: as above; format: cell-based; details: Corynebacterium bovis, 1810, 18 h, read-out: Minimum inhibitory concentrations
[36] = tested on: Shigella dysenteriae JS 11910; experiment: as above; format: cell-based; details: JS11910, 18 h, read-out: Minimum inhibitory concentrations
[37] = tested on: Shigella flexneri 4b JS 11811; experiment: as above; format: cell-based; details: 4BJS11811, nutrient agar, 37° C, 18 hours, read-out: Minimum inhibitory concentrations
[38] = tested on: Shigella sonnei JS 11746; experiment: as above; format: cell-based; details: JS11746, nutrient agar, 37° C, 18 hours, read-out: Minimum inhibitory concentrations
[39] = tested on: Salmonella enteritidis 1891; experiment: as above; format: cell-based; details: Salmonella enterica, nutrient agar, 37° C, 18 hours, read-out: Minimum inhibitory concentrations
[40] = tested on: Proetus vulgaris OX 19; experiment: as above; format: cell-based; details: nutrient agar, 37° C, 18 hours; read-out: Minimum inhibitory concentrations
[41] = tested on: Klebsiella pneumoniae PCI 1602; experiment: as above; format: cell-based; details: PCI1602, 18 h, read-out: Minimum inhibitory concentrations
[42] = PCI1001, nutrient agar, 37° C, 18 hours
[43] = 48 hours, read-out: Minimal inhibitory concentration
[44] = strain resistant to butirosin B

SMILES | MIC [4] [µg/mL] | MIC [5] [µg/mL] | MIC [9] [µg/mL] | MIC [10] [µg/mL] | MIC [12] [µg/mL] | MIC [13] [µg/mL] | MIC [14] [µg/mL] | MIC [15] [µg/mL] | MIC [16] [µg/mL] | MIC [17] [µg/mL] | MIC [18] [µg/mL] | MIC [19] [µg/mL] | MIC [20] [µg/mL] | MIC [21] [µg/mL] | MIC [22] [µg/mL] | MIC [23] [µg/mL] | MIC [24] [µg/mL] | MIC [25] [µg/mL] | MIC [26] [µg/mL] | MIC [27] [µg/mL] | also measured
NC[C@@H]1CC[C@@H](N)[C@@H](O[C@H]2[C@H](O)[C@@H](O)[C@H](N)C[C@@H]2N)O1 [3',4'-dideoxyneamine] | 50 (≈ 172 µM) | 12.5 (≈ 43 µM) | 50 (≈ 172 µM) | 3.12 (≈ 10.7 µM) | 25 (≈ 86.1 µM) | 6.25 (≈ 21.5 µM) | 6.25 (≈ 21.5 µM) | 12.5 (≈ 43 µM) | 25 (≈ 86.1 µM) | 6.25 (≈ 21.5 µM) | 12.5 (≈ 43 µM) | 12.5 (≈ 43 µM) | 6.25 (≈ 21.5 µM) | 6.25 (≈ 21.5 µM) | 25 (≈ 86.1 µM) | 25 (≈ 86.1 µM) | > 100 | 25 (≈ 86.1 µM) | 25 (≈ 86.1 µM) | 6.25 (≈ 21.5 µM) | MIC [1]: 0.39 µg/mL (≈ 1.34 µM); MIC [2]: 6.25 µg/mL (≈ 21.5 µM); MIC [3]: 12.5 µg/mL (≈ 43 µM); MIC [6]: 25 µg/mL (≈ 86.1 µM); MIC [7]: 50 µg/mL (≈ 172 µM); MIC [8]: 25 µg/mL (≈ 86.1 µM); MIC [11, 42]: 50 µg/mL (≈ 172 µM); MIC [28, 43]: 25 µg/mL (≈ 86.1 µM); activity against kanamycin-resistant strains ([29]; strains producing 3'-hydroxyl phosphorylating enzyme): actually effective
NCC[C@H](O)C(=O)N[C@@H]1C[C@H](N)[C@@H](O[C@H]2O[C@H](CN)[C@@H](O)[C@H](O)[C@H]2N)[C@H](O[C@@H]2O[C@H](CO)[C@@H](O)[C@H]2O)[C@H]1O [Butirosin B, 1-N-[(S)-α-hydroxy-γ-amino-n-butyryl]-ribostamycin] | 6.25 (≈ 11.2 µM) | 3.12 (≈ 5.62 µM) | 50 (≈ 90 µM) | 0.39 (≈ 0.702 µM) | > 100 | 0.78 (≈ 1.4 µM) | 0.78 (≈ 1.4 µM) | 0.78 (≈ 1.4 µM) | 3.12 (≈ 5.62 µM) | 0.78 (≈ 1.4 µM) | 1.56 (≈ 2.81 µM) | 1.56 (≈ 2.81 µM) | 0.39 (≈ 0.702 µM) | 0.78 (≈ 1.4 µM) | > 100 | 3.12 (≈ 5.62 µM) | > 100 | 6.25 (≈ 11.2 µM) | 25 (≈ 45 µM) | 1.56 (≈ 2.81 µM) | MIC [1]: 0.39 µg/mL (≈ 0.702 µM); MIC [2]: 1.56 µg/mL (≈ 2.81 µM); MIC [3]: 0.78 µg/mL (≈ 1.4 µM); MIC [6]: 0.78 µg/mL (≈ 1.4 µM); MIC [7]: 6.25 µg/mL (≈ 11.2 µM); MIC [8]: 3.12 µg/mL (≈ 5.62 µM); MIC [11, 42]: 50 µg/mL (≈ 90 µM); effectiveness against Escherichia coli K-12 JR 66/W 677 [12, 44]: resistant to butirosin B; effectiveness against Klebsiella pneumoniae type 22 #3038 [22, 44]: resistant to butirosin B; MIC [28, 43]: 0.78 µg/mL (≈ 1.4 µM); activity against kanamycin- and ribostamycin-resistant bacteria [29]: active against some kanamycin- and ribostamycin-resistant bacteria
NC[C@H]1O[C@H](O[C@H]2[C@H](O)[C@@H](O[C@H]3O[C@H](CO)[C@@H](O)[C@H](N)[C@H]3O)[C@H](N)C[C@@H]2N)[C@H](N)[C@@H](O)[C@@H]1O [Kanamycin B, kanamycin B] | 1.56 (≈ 3.23 µM) | 0.78 (≈ 1.61 µM) | > 100 | 0.2 (≈ 0.414 µM) | > 100 | 12.5 (≈ 25.9 µM) | 3.13 (≈ 6.47 µM) | 3.13 (≈ 6.47 µM) | > 100 | 0.78 (≈ 1.61 µM) | > 100 | > 100 | 0.39 (≈ 0.807 µM) | 0.78 (≈ 1.61 µM) | > 100 | 50 (≈ 103 µM) | > 100 | 12.5 (≈ 25.9 µM) | 100 (≈ 207 µM) | 0.39 (≈ 0.807 µM) | MIC ([11]; PCI1001, 18 h): 1.56 µg/mL (≈ 3.23 µM); MIC ([28]; 18 hours, read-out: Minimum inhibitory concentrations): 0.78 µg/mL (≈ 1.61 µM); MIC [30]: < 0.2 µg/mL; MIC [31]: < 0.2 µg/mL; MIC [32]: < 0.2 µg/mL; MIC [33]: < 0.2 µg/mL; MIC [34]: 0.78 µg/mL (≈ 1.61 µM); MIC [35]: 1.56 µg/mL (≈ 3.23 µM); MIC [36]: 3.13 µg/mL (≈ 6.47 µM); MIC [37]: 3.13 µg/mL (≈ 6.47 µM); MIC [38]: 1.56 µg/mL (≈ 3.23 µM); MIC [39]: 1.56 µg/mL (≈ 3.23 µM); MIC [40]: 0.78 µg/mL (≈ 1.61 µM); MIC [41]: 0.78 µg/mL (≈ 1.61 µM)
